Laboratory results: PMC10725504, “The co-crystal structure of Cbl-b and a small-molecule inhibitor reveals the mechanism of Cbl-b inhibition” (Communications Biology, 2023)

Target: T1, Cbl-b (Homo sapiens, UniProt Q13191)
T1 construct: gene CBLB; TKBD-LHR-RING (38–427) and full-length (1–982)
Assay: FP-based displacement assay (fluorescent probe)
Format: binding

T1 sequence (Q13191 38-427): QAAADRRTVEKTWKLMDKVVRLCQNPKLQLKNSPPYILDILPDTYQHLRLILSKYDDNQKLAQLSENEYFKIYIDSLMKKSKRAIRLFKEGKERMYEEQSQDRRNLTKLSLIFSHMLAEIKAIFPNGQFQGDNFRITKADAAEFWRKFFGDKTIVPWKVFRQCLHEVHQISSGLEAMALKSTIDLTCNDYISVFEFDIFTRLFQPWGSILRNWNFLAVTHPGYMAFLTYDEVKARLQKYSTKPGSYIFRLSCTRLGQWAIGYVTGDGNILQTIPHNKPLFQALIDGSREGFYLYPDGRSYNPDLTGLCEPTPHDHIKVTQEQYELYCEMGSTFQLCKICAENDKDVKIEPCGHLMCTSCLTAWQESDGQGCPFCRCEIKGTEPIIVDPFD

In the case of `CC1=CC(C)=[N+]2C1=Cc1ccc(CCC(=O)NCCOCCOCCOCCNCc3ccc(C(=O)Nc4cccc([C@H](C)Cc5nncn5C)c4)nc3C3CC3)n1[B-]2(F)F` [C7102], the “FP-based displacement assay (fluorescent probe)” value is reported as “C7683 displaced binding of C7102 to both TKBD-LHR-RING and full-length proteins in a concentration dependent manner”.
